In PubChem BioAssay (NCI):
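The compound was tested at five concentrations on cells cultured in 96-well plates, with a 48-hour exposure period. At the TGI there is no net growth.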

How the values were obtained:
Assay in all cases: NCI-60 cell line screen, 48 h
[1] = tested on: 786-0 renal
[2] = tested on: A549 NSCLC
[3] = tested on: ACHN renal
[4] = tested on: BT-549 breast
[5] = tested on: CCRF-CEM leukemia
[6] = tested on: COLO 205 colon
[7] = tested on: DU-145 prostate
[8] = tested on: EKVX NSCLC
[9] = tested on: HCC-2998 colon
[10] = tested on: HCT-116 colon
[11] = tested on: HCT-15 colon
[12] = tested on: HL-60(TB) leukemia
[13] = tested on: HOP-62 NSCLC
[14] = tested on: HOP-92 NSCLC
[15] = tested on: HS 578T breast
[16] = tested on: HT29 colon
[17] = tested on: IGROV1 ovarian
[18] = tested on: K-562 leukemia
[19] = tested on: KM12 colon
[20] = tested on: LOX IMVI melanoma
[21] = tested on: M14 melanoma
[22] = tested on: MALME-3M melanoma
[23] = tested on: MCF7 breast
[24] = tested on: MDA-MB-231 breast
[25] = tested on: MDA-MB-435
[26] = tested on: MDA-N
[27] = tested on: MOLT-4 leukemia
[28] = tested on: NCI-H226 lung
[29] = tested on: NCI-H23 lung
[30] = tested on: NCI-H460 lung
[31] = tested on: NCI-H522 lung
[32] = tested on: NCI/ADR-RES ovarian
[33] = tested on: OVCAR-3 ovarian
[34] = tested on: OVCAR-4 ovarian
[35] = tested on: OVCAR-5 ovarian
[36] = tested on: OVCAR-8 ovarian
[37] = tested on: PC-3 prostate
[38] = tested on: RPMI-8226 leukemia
[39] = tested on: RXF 393 renal
[40] = tested on: SF-268 CNS
[41] = tested on: SF-295 CNS
[42] = tested on: SF-539 CNS
[43] = tested on: SK-MEL-28 melanoma
[44] = tested on: SK-MEL-5 melanoma
[45] = tested on: SK-OV-3 ovarian
[46] = tested on: SN12C renal
[47] = tested on: SNB-19 CNS
[48] = tested on: SNB-75 CNS
[49] = tested on: SR leukemia
[50] = tested on: SW-620 colon
[51] = tested on: T-47D breast
[52] = tested on: TK-10 renal
[53] = tested on: U251 CNS
[54] = tested on: UACC-257 melanoma
[55] = tested on: UACC-62 melanoma
[56] = tested on: UO-31 renal
[57] = tested on: A498 renal
[58] = tested on: CAKI-1 renal
[59] = tested on: SK-MEL-2 melanoma

Measured: TGI

Oc1ccccc1C1C=C(c2ccccc2)NC(N2CCCCC2)=C1c1nc2ccccc2[nH]1 (configuration not stated)
27 µM: [44]
18.8 µM: [8]
24.6 µM: [10]
26.4 µM: [45]
28 µM: [30]
30.6 µM: [43]
66.6 µM: [7]
29.3 µM: [16]
32 µM: [35]
24.4 µM: [24]
29.7 µM: [42] | [46]
27.7 µM: [31]
35.9 µM: [11]
27.4 µM: [13]
25.9 µM: [21]
30.9 µM: [36]
24.9 µM: [23]
28.5 µM: [4]
24.7 µM: [39]
23.7 µM: [56]
26.6 µM: [26]
29.6 µM: [22] | [25]
27.8 µM: [17]
29.8 µM: [33] | [55]
29.2 µM: [2] | [41]
43 µM: [12]
31 µM: [15]
31.2 µM: [20]
> 100 µM: [18]
31.3 µM: [19]
47.7 µM: [3] | [5]
24.5 µM: [37]
26.9 µM: [14]
10.8 µM: [9]
35.3 µM: [49]
28.7 µM: [47]
28.4 µM: [53]
5.81 µM: [6]
57.6 µM: [27]
35.1 µM: [28]
30.5 µM: [50]
49 µM: [38]
30.7 µM: [34] | [54]
25.7 µM: [1]
18.3 µM: [48]
40.4 µM: [51]
27.5 µM: [40]
34.3 µM: [52]
34 µM: [32]
30.3 µM: [29]

[O-][N+]1(CC[N+]2([O-])CCCCC2)CCCCC1
> 100 µM: [1] | [57] | [2] | [3] | [4] | [58] | [5] | [6] | [7] | [8] | [10] | [11] | [12] | [13] | [14] | [15] | [16] | [17] | [18] | [19] | [20] | [21] | [22] | [23] | [24] | [25] | [26] | [27] | [28] | [29] | [30] | [31] | [32] | [33] | [34] | [35] | [36] | [37] | [38] | [39] | [40] | [41] | [42] | [59] | [43] | [44] | [45] | [46] | [47] | [48] | [49] | [50] | [51] | [52] | [53] | [55] | [56]

C[N+](C)(C)C=Nc1cccc2c1CCCC2
> 100 µM: [1] | [57] | [2] | [3] | [4] | [58] | [5] | [6] | [7] | [8] | [10] | [11] | [12] | [13] | [14] | [15] | [16] | [17] | [18] | [20] | [21] | [22] | [23] | [24] | [25] | [26] | [27] | [28] | [29] | [32] | [33] | [34] | [35] | [36] | [37] | [38] | [39] | [40] | [41] | [42] | [59] | [43] | [44] | [45] | [46] | [47] | [48] | [49] | [51] | [52] | [53] | [54] | [55] | [56]

CS[C@]12[C@@H]3C(=O)N(C)C(=O)[C@@H]3[C@](C)(C(=O)N1C)C(=O)N2c1ccccc1
> 100 µM: [1] | [57] | [2] | [3] | [4] | [58] | [5] | [6] | [7] | [8] | [9] | [10] | [11] | [12] | [13] | [14] | [15] | [16] | [17] | [19] | [20] | [21] | [22] | [23] | [24] | [25] | [26] | [27] | [28] | [29] | [31] | [32] | [33] | [34] | [35] | [36] | [37] | [38] | [39] | [40] | [41] | [42] | [59] | [43] | [44] | [45] | [46] | [47] | [48] | [50] | [51] | [52] | [53] | [54] | [55] | [56]

O=CC(O)C(O)C(O)C1CNC(=S)O1 (configuration not stated)
> 100 µM: [1] | [57] | [2] | [3] | [4] | [58] | [5] | [6] | [7] | [8] | [10] | [11] | [12] | [13] | [14] | [15] | [16] | [17] | [18] | [19] | [20] | [21] | [22] | [23] | [24] | [25] | [26] | [27] | [28] | [29] | [30] | [31] | [32] | [33] | [34] | [35] | [36] | [37] | [38] | [39] | [40] | [41] | [42] | [59] | [43] | [44] | [45] | [46] | [48] | [49] | [50] | [51] | [52] | [53] | [54] | [55] | [56]

C[Si](C)(c1ccc(C(=O)O)cc1)c1ccc(C(=O)O)cc1
> 100 µM: [1] | [57] | [2] | [3] | [4] | [58] | [5] | [6] | [7] | [8] | [10] | [11] | [13] | [14] | [15] | [16] | [17] | [18] | [19] | [20] | [21] | [22] | [23] | [24] | [25] | [26] | [27] | [28] | [29] | [30] | [31] | [32] | [33] | [34] | [35] | [36] | [37] | [38] | [39] | [40] | [41] | [42] | [59] | [43] | [44] | [45] | [46] | [47] | [48] | [49] | [50] | [51] | [52] | [53] | [54] | [55]

O=S(=O)(O)c1cccc2cccc(N=Nc3c(O)ccc4ccccc34)c12
> 100 µM: [1] | [57] | [2] | [3] | [4] | [58] | [5] | [6] | [7] | [8] | [9] | [10] | [11] | [12] | [13] | [14] | [15] | [16] | [17] | [18] | [19] | [21] | [22] | [23] | [24] | [25] | [26] | [27] | [28] | [29] | [30] | [31] | [32] | [33] | [34] | [35] | [36] | [37] | [39] | [40] | [41] | [42] | [59] | [44] | [45] | [46] | [47] | [48] | [49] | [50] | [51] | [52] | [53] | [54] | [55] | [56]
